Results on one compound are retold here after article PMC9937012 (Journal of Enzyme Inhibition and Medicinal Chemistry, 2023).

For one assay, the target named is BuChE from human serum (Homo sapiens, UniProt P06276). Kind of assay: Inhibition of BuChE. The class given is biochemical.
The target of the next assay is T1, human recombinant MAO-B (Homo sapiens, UniProt P27338).
T1 sequence (P27338 1-520): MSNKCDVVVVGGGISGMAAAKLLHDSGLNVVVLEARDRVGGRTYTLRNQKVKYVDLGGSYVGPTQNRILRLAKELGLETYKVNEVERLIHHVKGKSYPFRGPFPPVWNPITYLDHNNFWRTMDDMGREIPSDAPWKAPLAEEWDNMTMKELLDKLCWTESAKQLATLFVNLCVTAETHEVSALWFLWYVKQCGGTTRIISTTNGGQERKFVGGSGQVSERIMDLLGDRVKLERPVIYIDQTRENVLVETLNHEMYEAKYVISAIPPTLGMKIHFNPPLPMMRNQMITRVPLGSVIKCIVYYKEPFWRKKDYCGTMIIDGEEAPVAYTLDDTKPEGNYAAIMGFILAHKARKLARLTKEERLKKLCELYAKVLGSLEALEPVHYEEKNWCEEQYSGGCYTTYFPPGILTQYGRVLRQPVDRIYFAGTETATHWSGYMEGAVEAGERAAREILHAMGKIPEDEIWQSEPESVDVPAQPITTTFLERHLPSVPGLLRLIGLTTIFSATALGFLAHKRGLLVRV
Kind of assay: Inhibition of monoamine oxidase B. It is filed as biochemical. The following applies: read-out: MAO-B % Inhibition at 10 µM, 10 µM; mean of three experiments.

Another assay deals with human H3R (Homo sapiens, UniProt Q9Y5N1). Nature of the assay: Human H3R radioligand displacement assay. A general note: Loss of bound radioactivity is the signal in a displacement assay; it reports binding, not function.
For a further assay, the target named is human H4R (Homo sapiens, UniProt Q9H3N8). Kind of assay: Human H4R radioligand displacement assay. The following applies: read-out: hH4R Inhibition at 10 µM [%] (n).
In another assay the target is human AChE (Homo sapiens, UniProt P22303). Nature of the assay: Inhibition of AChE. The class given is biochemical.
The next assay concerns the target human H1R (Homo sapiens, UniProt P35367). Nature of the assay: Human H1R radioligand displacement assay. The class given is binding. The following applies: read-out: hH1R Inhibition at 10 µM [%] ±SD (n).
The next assay deals with T2, human recombinant MAO-A (Homo sapiens, UniProt P21397).
T2 sequence (P21397 1-527): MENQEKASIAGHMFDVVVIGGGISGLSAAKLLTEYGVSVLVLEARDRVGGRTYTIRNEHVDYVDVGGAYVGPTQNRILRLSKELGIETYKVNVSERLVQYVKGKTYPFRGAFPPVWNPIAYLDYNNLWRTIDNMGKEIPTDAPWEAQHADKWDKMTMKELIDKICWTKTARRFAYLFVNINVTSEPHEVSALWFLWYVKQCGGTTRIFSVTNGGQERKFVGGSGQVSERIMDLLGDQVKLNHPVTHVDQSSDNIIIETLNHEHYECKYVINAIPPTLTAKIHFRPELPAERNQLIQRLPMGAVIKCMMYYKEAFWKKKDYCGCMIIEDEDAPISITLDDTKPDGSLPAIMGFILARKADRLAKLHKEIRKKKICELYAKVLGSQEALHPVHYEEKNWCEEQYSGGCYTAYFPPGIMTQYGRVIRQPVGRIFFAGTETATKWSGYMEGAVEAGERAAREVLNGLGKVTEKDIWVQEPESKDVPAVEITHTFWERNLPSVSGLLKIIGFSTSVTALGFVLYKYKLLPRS
Kind of assay: Inhibition of monoamine oxidase A. The class given is biochemical. The following applies: read-out: MAO-A % Inhibition at 10 µM.

Chain of BuChE from human serum (P06276 29-602): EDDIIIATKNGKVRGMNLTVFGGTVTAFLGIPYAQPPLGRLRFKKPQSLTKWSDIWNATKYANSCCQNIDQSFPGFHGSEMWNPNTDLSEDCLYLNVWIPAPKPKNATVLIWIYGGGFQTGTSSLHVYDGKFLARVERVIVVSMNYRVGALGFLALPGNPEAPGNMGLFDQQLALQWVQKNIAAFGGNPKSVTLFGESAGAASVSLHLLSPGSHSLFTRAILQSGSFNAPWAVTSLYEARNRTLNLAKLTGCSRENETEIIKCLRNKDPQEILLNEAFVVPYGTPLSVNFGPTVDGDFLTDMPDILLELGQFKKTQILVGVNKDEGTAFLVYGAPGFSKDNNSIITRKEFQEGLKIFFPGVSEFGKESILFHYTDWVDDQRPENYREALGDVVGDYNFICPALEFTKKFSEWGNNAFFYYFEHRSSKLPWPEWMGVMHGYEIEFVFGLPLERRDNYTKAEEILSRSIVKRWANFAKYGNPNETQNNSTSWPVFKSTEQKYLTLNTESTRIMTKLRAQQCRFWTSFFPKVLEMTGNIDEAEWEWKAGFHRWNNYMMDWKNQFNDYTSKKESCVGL
Chain of human AChE (P22303 32-614): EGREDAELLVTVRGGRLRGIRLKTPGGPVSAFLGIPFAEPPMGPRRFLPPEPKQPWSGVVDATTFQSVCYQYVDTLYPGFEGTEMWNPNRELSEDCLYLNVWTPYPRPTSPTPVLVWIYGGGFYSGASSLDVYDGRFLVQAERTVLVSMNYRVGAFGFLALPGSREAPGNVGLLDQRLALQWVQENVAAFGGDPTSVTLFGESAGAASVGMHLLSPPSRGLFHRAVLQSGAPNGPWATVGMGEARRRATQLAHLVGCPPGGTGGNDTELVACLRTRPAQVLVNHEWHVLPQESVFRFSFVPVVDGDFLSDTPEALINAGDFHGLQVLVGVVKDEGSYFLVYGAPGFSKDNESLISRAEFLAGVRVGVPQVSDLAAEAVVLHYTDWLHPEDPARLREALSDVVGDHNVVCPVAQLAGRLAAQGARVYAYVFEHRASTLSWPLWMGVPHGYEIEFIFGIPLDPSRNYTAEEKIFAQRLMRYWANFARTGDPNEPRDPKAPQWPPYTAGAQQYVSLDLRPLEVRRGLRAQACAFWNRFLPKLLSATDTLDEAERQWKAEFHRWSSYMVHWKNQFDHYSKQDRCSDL
Chain of human H1R (P35367 whole entry): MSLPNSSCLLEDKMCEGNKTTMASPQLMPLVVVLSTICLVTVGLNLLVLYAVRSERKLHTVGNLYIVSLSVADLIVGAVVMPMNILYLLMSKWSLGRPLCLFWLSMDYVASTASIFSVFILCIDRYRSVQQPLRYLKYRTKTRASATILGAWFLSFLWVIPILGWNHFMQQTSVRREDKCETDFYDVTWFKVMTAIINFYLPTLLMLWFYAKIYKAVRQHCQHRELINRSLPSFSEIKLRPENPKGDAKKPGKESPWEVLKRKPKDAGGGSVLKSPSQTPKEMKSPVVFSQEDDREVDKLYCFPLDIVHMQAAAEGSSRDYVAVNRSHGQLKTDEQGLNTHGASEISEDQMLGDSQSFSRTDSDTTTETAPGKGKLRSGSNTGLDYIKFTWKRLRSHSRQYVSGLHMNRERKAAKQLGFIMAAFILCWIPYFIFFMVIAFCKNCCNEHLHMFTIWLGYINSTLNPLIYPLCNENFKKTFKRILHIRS
Chain of human H4R (Q9H3N8 whole entry): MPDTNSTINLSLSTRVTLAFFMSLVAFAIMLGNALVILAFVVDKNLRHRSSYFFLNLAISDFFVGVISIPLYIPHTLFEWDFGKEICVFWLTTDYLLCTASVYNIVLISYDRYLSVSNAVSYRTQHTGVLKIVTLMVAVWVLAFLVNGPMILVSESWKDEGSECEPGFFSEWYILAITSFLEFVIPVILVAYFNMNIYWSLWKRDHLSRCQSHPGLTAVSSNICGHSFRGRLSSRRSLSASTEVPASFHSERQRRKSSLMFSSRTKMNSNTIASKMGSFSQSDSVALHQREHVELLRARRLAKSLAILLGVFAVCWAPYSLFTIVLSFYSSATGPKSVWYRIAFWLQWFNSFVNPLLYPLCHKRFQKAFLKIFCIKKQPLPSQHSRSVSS
Chain of human H3R (Q9Y5N1 whole entry): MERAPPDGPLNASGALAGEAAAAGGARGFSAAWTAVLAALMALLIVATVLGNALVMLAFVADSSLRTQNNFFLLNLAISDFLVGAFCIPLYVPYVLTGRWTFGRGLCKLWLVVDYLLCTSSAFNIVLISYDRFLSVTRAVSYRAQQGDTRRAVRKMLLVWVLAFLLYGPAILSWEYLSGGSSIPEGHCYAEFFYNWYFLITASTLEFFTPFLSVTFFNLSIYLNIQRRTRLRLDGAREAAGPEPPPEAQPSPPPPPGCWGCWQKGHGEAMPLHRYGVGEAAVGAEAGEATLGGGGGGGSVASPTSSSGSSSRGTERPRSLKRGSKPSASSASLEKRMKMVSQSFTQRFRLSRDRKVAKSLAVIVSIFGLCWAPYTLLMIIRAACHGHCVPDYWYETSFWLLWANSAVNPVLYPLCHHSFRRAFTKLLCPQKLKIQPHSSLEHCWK

As usually defined, the IC50 is the midpoint of a concentration-inhibition curve. Usually inhibition stands for the drop in the measured response relative to a control, in per cent. As usually defined, the Ki is a measure of affinity in units of concentration, obtained from inhibition or displacement. Low values mean a stronger hold on the target, high ones a looser hold on the target. In the case of `O=C(NC1CCCC1)c1nc2ccc(OCCCCCNC3CCCC3)cc2s1` [Compound 3t, N-Cyclopentyl-6-((5-(cyclopentylamino)pentyl)oxy)benzo[d]thiazole-2-carboxamide], the IC50 was 1.75 ± 0.06 µM against BuChE from human serum and 3.55 ± 0.54 µM at human AChE. The inhibition at 10 µM on BuChE from human serum (read-out: hBuChE % Inhibition at 10 µM) was determined as 84 ± 1%; on human recombinant MAO-B, 47 ± 5%; at human H4R it was 41.8 ± 31.7%; on human AChE (read-out: AChE Inhibition at 10 µM [%]), 75.5 ± 4.73%; at human H1R, 47.3 ± 8.91%; on human recombinant MAO-A, 39 ± 4%. Further, the inhibition constant (Ki) at human H3R is over 1 µM.
